Results from paper PMC5808360, “Neutral Porphyrin Derivative Exerts Anticancer Activity by Targeting Cellular Topoisomerase I (Top1) and Promotes Apoptotic Cell Death without Stabilizing Top1-DNA Cleavage Complexes” (Journal of Medicinal Chemistry, 2017).

How the values were obtained:
[1] = biological target: T1, cellular Top1 in MCF7 cells (Homo sapiens, UniProt P11387); test: Western blot of Top1 in whole cell extracts of treated MCF7 cells; assay type: cell-based; settings: 10 μM, indicated times
T1 construct: endogenous in cells; host or cells: MCF7 cells
T1 sequence (P11387 2-765 limits assumed): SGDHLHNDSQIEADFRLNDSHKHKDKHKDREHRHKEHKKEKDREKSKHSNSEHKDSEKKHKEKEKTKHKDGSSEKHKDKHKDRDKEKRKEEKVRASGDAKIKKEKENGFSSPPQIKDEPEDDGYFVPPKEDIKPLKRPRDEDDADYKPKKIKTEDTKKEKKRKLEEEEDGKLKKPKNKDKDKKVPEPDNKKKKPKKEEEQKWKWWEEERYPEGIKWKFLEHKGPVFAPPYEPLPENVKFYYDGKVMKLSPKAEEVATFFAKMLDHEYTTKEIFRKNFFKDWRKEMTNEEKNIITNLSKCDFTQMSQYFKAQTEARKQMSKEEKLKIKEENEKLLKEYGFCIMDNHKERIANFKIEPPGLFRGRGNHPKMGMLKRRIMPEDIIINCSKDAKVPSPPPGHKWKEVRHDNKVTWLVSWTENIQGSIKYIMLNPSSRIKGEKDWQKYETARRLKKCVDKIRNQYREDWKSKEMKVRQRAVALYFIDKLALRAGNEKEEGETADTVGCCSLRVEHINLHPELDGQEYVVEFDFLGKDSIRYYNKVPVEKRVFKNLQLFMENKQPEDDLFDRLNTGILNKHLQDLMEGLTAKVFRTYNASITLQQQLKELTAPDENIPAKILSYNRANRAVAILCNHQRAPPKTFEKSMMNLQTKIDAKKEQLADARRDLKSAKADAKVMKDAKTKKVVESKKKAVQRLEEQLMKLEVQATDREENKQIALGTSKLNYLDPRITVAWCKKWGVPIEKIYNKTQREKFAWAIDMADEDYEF
Description: Because compound 8 binds with free Top1 (Figure 3) and inhibits Top1cc formation in live cells (Figure 2E), we examined the impact of compound 8 on endogenous Top1. Cellular lysates were prepared from MCF7 cells treated with compound 8 for indicated times and were analyzed by Western blotting. […] Because proteasome has been implicated for Top1 degradation,[7],[9],[45] we used proteasome specific inhibitor (MG132) to investigate Top1 proteolysis in compound 8 treated cells.
Preparation of whole cell extracts from MCF7 cells and immunoblotting were carried out as described.[6],[40],[41] Immunoreactivity was detected using ECL chemiluminescence reaction (Amersham) under ChemiDoc MP system (Bio-Rad, USA).

[2] = biological target: T2, recombinant Top1 (Homo sapiens, UniProt P11387); test: Dilution assay with recombinant Top1 (reversibility of inhibition); assay type: biochemical
T2 construct: made in house; host or cells: Sf-9 insect cells (recombinant baculovirus, gift of Prof. James J. Champoux)
T2 sequence (P11387 1-765): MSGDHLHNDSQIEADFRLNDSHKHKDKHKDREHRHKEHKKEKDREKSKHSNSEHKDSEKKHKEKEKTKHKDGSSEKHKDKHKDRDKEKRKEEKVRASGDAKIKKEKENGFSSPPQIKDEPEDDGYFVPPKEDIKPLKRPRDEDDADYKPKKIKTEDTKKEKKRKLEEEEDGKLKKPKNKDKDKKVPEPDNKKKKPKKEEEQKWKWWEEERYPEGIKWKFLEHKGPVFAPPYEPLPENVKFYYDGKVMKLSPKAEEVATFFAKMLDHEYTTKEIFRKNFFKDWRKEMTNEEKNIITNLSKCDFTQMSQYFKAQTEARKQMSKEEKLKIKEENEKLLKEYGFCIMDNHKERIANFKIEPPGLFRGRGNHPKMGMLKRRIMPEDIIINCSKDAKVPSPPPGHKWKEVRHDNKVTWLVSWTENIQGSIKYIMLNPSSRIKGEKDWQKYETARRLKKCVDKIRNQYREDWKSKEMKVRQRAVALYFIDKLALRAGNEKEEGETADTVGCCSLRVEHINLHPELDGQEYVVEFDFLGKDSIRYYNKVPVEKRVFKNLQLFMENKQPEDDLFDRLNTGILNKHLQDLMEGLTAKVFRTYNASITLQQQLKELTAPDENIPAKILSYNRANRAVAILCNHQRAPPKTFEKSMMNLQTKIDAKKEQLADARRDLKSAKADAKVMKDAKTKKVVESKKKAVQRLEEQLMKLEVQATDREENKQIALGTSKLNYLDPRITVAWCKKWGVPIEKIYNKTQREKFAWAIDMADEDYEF
Source text: To further investigate the nature of binding of compound 8 with Top1 (reversible vs irreversible),[12],[14] we performed dilution assay with recombinant Top1.

[3] = tested on: human breast adenocarcinoma cell lines (MCF7); test: Cell survival (MTT) assay, MCF7; assay type: cell-based; settings: MCF7, CPT 5 μM 12 h prior to addition of compound 8
Description: Compound 8 was investigated for its cytotoxicity in the cancer cell lines from different tissue origin,[6],[41] as well as in the noncancerous human embryonic kidney cell lines (HEK293) and mouse embryonic fibroblasts (MEFs). […] The MCF7 breast cancer cell lines were most susceptible to compound 8.
Cell survival was assessed by 3-(4,5-dimethylthiazol-2-yl)-2,5-diphenyltetrazolium bromide (MTT) assay as discussed previously.[6] The percent inhibition of viability for each concentration of the compounds was calculated with respect to the control, and IC50 values were estimated.

[4] = tested on: relaxed pBS (SK+) plasmid DNA; test: Topoisomerase I unwinding assay (DNA intercalation); settings: m-AMSA and etoposide 50 and 300 μM; compound 8 50, 100, 300 μM
Description: Therefore, compound 8 interacts in reversible manner with Top1 to inhibit the plasmid relaxation activity (Figure 1).
The competence of the drug to intercalate into plasmid DNA was determined by Top1 unwinding assay.[36],[44] Assays were performed with 50 fmol of pBluscript (SK+) DNA in the presence or absence of compound 8, m-AMSA, and etoposide at indicated concentrations. Excess of DNA topoisomerase I was reacted with supercoiled plasmid DNA to generate relaxed DNA for the unwinding assays. The relaxed DNA was purified by proteolytic digestion with proteinase K at 37 °C, followed by phenol/chloroform extraction and ethanol precipitation. The unwinding assays were carried out at 37 °C for 15 min with independent compounds and were analyzed by 1% agarose gel as described above.

[5] = biological target: T3, Top1-DNA cleavage complexes (Top1cc) (Homo sapiens, UniProt P11387); test: Single turnover equilibrium cleavage assay with 25-mer duplex oligonucleotide; assay type: biochemical
T3 construct: made in house; host or cells: Sf-9 insect cells (recombinant baculovirus, gift of Prof. James J. Champoux)
T3 sequence (P11387 1-765): T2 sequence (P11387 1-765)
Description: Plasmid DNA cleavage assay was carried out as described previously.[6],[8] For equilibrium cleavage assays, 25-mer duplex of oligonucleotide containing a Top1 binding motif was labeled and annealed as described previously.[13],[36],[38] Samples were analyzed by 12% sequencing gel electrophoresis, dried, and exposed on PhosphorImager screens and imaged with Typhoon FLA 7000 (GE Healthcare, U.K.).

CN(C)c1ccc(-c2c3nc(c(-c4ccc(N(C)C)cc4)c4ccc([nH]4)c(-c4ccc(C(=O)O)cc4)c4nc(c(-c5ccc(C(=O)O)cc5)c5ccc2[nH]5)C=C4)C=C3)cc1 [Compound 8, 5,10-Bis(4-carboxyphenyl)-15,20-bis(4-dimethylaminophenyl)porphyrin]
Top1 signal in Western blot [1]: time dependent depletion of Top1 signal
inhibition at 1 µM ([2]; Top1 preincubated with 1 μM compound, read-out: Inhibition of enzyme before dilution): 90 to 99%
Relief of Top1 inhibition upon dilution ([2]; at 40-fold dilution (final 0.025 μM)): Complete relief of Top1 inhibition
Cytotoxicity of CPT pretreatment followed by compound 8 [3]: not additive in cytotoxicity
Negative supercoiling of relaxed plasmid DNA (intercalation) [4]: failed to induce negative supercoiling of the relaxed plasmid DNA
Stabilization of Top1cc in single turnover equilibrium cleavage assay ([5]; 25-mer duplex oligonucleotide, recombinant Top1 0.2 μM): failed to stabilize Top1cc
Effect on CPT-induced Top1cc with 12-mer cleaved oligonucleotides ([5]; Top1 incubated with CPT before addition of compound): reversed the CPT-induced Top1cc
